From patent US20260035340A1, “INHIBITORS OF AKR1C3 AND METHODS OF USE” (BOARD OF REGENTS OF THE UNIVERSITY OF NEBRASKA, priority 2022, published 2026)
Read-outs that look alike come from different tables or passages of the source.

Tests used:
Type in all cases: biochemical
AKR1C3 = AKR1C3 (Homo sapiens (Human), UniProt P42330); test: AKR enzyme inhibition assay, NADP+ dependent oxidation of S-tetralol, AKR1C3; settings: for Selectivity 1C2:1C3: ratio of AKR1C2 to AKR1C3 IC50; for selectivity over AKR1C2: AKR1C3 over AKR1C2
Experimental: (§1) Structure-Activity Relationship: The ability of compounds to inhibit AKR1C3 in the first instance were determined by measuring the NADP+ dependent oxidation of S-tetralol catalyzed by recombinant enzyme as described herein. […] Assay of enzyme activity: The dehydrogenase activities of AKR1C1, AKR1C2, and AKR1C3 were determined by measuring the formation of NADH formation at 340 nm using Beckman DU640 spectrophotometer. […] After continuously monitoring for 5 min, the increase in UV absorption using different concentrations of enzyme were recorded to calculate the initial velocity and determine enzyme specific activity. IC50 value determination: The inhibitory potency for each compound was represented by IC50 value and measured as described before. […] The concentration of S-tetralol used in the assays for each AKR1C isoform was equal to the Km value for the respective enzyme so that IC50 values could be directly compared assuming a competitive pattern of inhibition. […] In this equation, “range” is the fitted uninhibited value minus the “background”, and “S” is a slope factor. “I” is the concentration of inhibitor. The equation assumes that y falls with increasing “I”.

AKR1C2 = AKR1C2 (Homo sapiens (Human), UniProt P52895); test: AKR enzyme inhibition assay, NADP+ dependent oxidation of S-tetralol, AKR1C2 counter-screen
Experimental: as §1

AKR1C1 = AKR1C1 (Homo sapiens (Human), UniProt Q04828); test: AKR enzyme inhibition assay, NADP+ dependent oxidation of S-tetralol, AKR1C1; settings: Table 2; recombinant enzyme, S-tetralol at Km; read-out: IC50 ± SD AKR1C1
Experimental: (§2) Assay of enzyme activity: The dehydrogenase activities of AKR1C1, AKR1C2, and AKR1C3 were determined by measuring the formation of NADH formation at 340 nm using Beckman DU640 spectrophotometer. […] After continuously monitoring for 5 min, the increase in UV absorption using different concentrations of enzyme were recorded to calculate the initial velocity and determine enzyme specific activity. IC50 value determination: The inhibitory potency for each compound was represented by IC50 value and measured as described before. […] The concentration of S-tetralol used in the assays for each AKR1C isoform was equal to the Km value for the respective enzyme so that IC50 values could be directly compared assuming a competitive pattern of inhibition. […] In this equation, “range” is the fitted uninhibited value minus the “background”, and “S” is a slope factor. “I” is the concentration of inhibitor. The equation assumes that y falls with increasing “I”.

AKR1C4 = AKR1C4 (Homo sapiens (Human), UniProt P17516); test: AKR enzyme inhibition assay, AKR1C4; settings: Table 2; recombinant enzyme; read-out: IC50 ± SD AKR1C4
Experimental: as §2

[1] = Table 2, recombinant enzyme, S-tetralol at Km, read-out: IC50 ± SD AKR1C3
[2] = Table 2, recombinant enzyme, S-tetralol at Km, read-out: IC50 ± SD AKR1C2
[3] = Table 3, compounds of formula (A4), read-out: IC50 AKR1C3
[4] = Table 4, compounds of formula (A3), read-out: IC50 AKR1C3

Sequence of AKR1C4 (P17516 whole entry): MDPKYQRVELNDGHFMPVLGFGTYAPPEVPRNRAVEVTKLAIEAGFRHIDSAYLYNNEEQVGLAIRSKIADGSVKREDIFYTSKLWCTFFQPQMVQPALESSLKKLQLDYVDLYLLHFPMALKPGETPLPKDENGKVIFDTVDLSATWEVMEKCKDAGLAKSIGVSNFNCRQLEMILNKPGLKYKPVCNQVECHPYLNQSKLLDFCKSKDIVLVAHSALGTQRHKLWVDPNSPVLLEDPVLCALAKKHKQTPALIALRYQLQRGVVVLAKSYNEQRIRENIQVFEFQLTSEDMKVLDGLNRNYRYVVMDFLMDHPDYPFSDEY
Sequence of AKR1C3 (P42330 whole entry): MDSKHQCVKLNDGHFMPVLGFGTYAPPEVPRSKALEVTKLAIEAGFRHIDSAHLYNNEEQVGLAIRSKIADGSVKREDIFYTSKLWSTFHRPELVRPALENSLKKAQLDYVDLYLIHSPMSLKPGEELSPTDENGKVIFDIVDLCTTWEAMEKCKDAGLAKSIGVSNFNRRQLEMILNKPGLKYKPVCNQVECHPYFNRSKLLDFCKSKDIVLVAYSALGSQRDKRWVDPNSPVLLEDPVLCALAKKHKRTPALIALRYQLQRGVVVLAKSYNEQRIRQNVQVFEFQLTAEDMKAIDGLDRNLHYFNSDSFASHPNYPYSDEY
Sequence of AKR1C1 (Q04828 whole entry): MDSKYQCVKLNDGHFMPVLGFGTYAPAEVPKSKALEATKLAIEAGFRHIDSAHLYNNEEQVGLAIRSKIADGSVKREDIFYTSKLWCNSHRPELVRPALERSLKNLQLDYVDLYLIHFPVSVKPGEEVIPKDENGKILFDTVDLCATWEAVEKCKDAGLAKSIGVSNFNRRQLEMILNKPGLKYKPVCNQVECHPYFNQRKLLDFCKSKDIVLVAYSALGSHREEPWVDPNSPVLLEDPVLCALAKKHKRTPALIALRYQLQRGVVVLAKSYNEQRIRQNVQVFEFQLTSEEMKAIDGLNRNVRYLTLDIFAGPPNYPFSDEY
Sequence of AKR1C2 (P52895 whole entry): as the sequence (Q04828 whole entry) above, with T38V, R47H, L54V, C87S, V151M, R170H, Q172L counted along it

| Compound | IC50 (AKR1C3; read-out: IC50 AKR1C3) [µM] | IC50 (AKR1C3; [1]) [µM] | IC50 (AKR1C2; [2]) [µM] | IC50 (AKR1C4) [µM] | further results |
| --- | --- | --- | --- | --- | --- |
| COC(=O)/C=C/c1cc(Br)cc(C(=O)NCc2ccc(C)cc2)c1 [Compound 3] | 0.2 | – | – | – | – |
| CC(C)=CCOc1cc(/C=C/C(=O)O)cc(C(=O)NCc2ccc(C)cc2)c1 [Compound 10, (E)-3-(3-((4-Methylbenzyl)carbamoyl)-5-((3-methylbut-2-en-1-yl)oxy)phenyl)acrylic acid] | – | 0.08 ± 0.01 | 15 ± 2.4 | 31 ± 5 | Selectivity 1C2:1C3 (AKR1C3; Table 2): 187; IC50 (AKR1C1): 52 ± 7 µM |
| Cc1ccc(CNC(=O)c2cc(Br)cc(/C=C/C(=O)O)c2)cc1 [Compound 11, (E)-3-(3-Bromo-5-((4-methylbenzyl)carbamoyl)phenyl)acrylic acid] | – | 0.3 ± 0.01 | > 100 | 40 ± 1.3 | Selectivity 1C2:1C3 (AKR1C3; Table 2): >333 |
| Cc1ccc(CNC(=O)c2cc(Br)cc(/C=C/C(N)=O)c2)cc1 [Compound 12, (E)-3-(3-Amino-3-oxoprop-1-en-1-yl)-5-bromo-N-(4-methylbenzyl)benzamide] | – | – | – | – | IC50 (AKR1C3; [3]): 28 ± 2.9 µM |
| Cc1ccc(CNC(=O)c2cc(/C=C/C(N)=O)cc(-c3ccc(Oc4ccccc4)cc3)c2)cc1 [Compound 13, (E)-5-(3-Amino-3-oxoprop-1-en-1-yl)-N-(4-methylbenzyl)-4′-phenoxy-[1,1′-biphenyl]-3-carboxamide] | 2.7 | – | – | – | – |
| Cc1ccc(CNC(=O)c2cc(Br)cc(/C=C/C(=O)N(C)C)c2)cc1 [Compound 14, (E)-3-Bromo-5-(3-(dimethylamino)-3-oxoprop-1-en-1-yl)-N-(4-methylbenzyl)benzamide] | 0.4 | – | – | – | increased activity over terminal primary amide 12 (AKR1C3; AKR1C3 inhibition): > 66 fold |
| Cc1ccc(CNC(=O)c2cc(Br)cc(/C=C/C#N)c2)cc1 [Compound 15, (E)-3-Bromo-5-(2-cyanovinyl)-N-(4-methylbenzyl)benzamide] | 0.17 | – | – | – | – |
| Cc1ccc(CNC(=O)c2cc(/C=C/C#N)cc(-c3ccc(Oc4ccccc4)cc3)c2)cc1 [Compound 16a, (E)-5-(2-Cyanovinyl)-N-(4-methylbenzyl)-4′-phenoxy-[1,1′-biphenyl]-3-carboxamide] | 1.4 | – | – | – | IC50 (AKR1C3; [3]): 1.4 ± 0.3 µM |
| CC(C)=CCc1cc(/C=C/C#N)cc(C(=O)NCc2ccc(C)cc2)c1 [Compound 16b, (E)-3-(2-Cyanovinyl)-N-(4-methylbenzyl)-5-(3-methylbut-2-en-1-yl)benzamide] | 2.7 | – | – | – | IC50 (AKR1C3; [3]): 2.7 ± 0.37 µM |
| CC[C@@H](NC(=O)c1cc(/C=C/C(=O)O)cc(-c2ccc(C(C)C)cc2)c1)c1ccccc1 [Compound 20a, (R,E)-3-(4′-Isopropyl-5-((1-phenylpropyl)carbamoyl)-[1,1′-biphenyl]-3-yl)acrylic acid] | – | – | – | – | IC50 (AKR1C3; [4]): 0.12 ± 0.014 µM; Selectivity 1C2:1C3 (AKR1C3; Table 4): 51; IC50 (AKR1C2; Table 4, compounds of formula (A3), read-out: IC50 AKR1C2): 6 ± 1.4 µM |
| CC[C@@H](NC(=O)c1cc(/C=C/C(=O)O)cc(-c2ccc(Oc3ccccc3)cc2)c1)c1ccccc1 [Compound 20b, (R,E)-3-(4′-Phenoxy-5-((1-phenylpropyl)carbamoyl)-[1,1′-biphenyl]-3-yl)acrylic acid] | – | – | – | – | IC50 (AKR1C3; [4]): 0.26 ± 0.0166 µM |
| Cc1ccc(CNC(=O)c2cc(/C=C/C(=O)O)cc(-c3ccccc3)c2)cc1 [Compound A1-a, (E)-3-(5-((4-Methylbenzyl)carbamoyl)-[1,1′-biphenyl]-3-yl)acrylic acid] | 0.04 | – | > 100 | 21 ± 2.5 | selectivity over AKR1C2 (AKR1C3): > 2320 fold; Selectivity 1C2:1C3 (AKR1C3; Table 2): >2500; IC50 (AKR1C1): > 100 µM |
| C/C=C\Cc1cc(/C=C/C(=O)O)cc(C(=O)NCc2ccc(C)cc2)c1 [Compound A1-aa, (E)-3-(3-((Z)-but-2-en-1-yl)-5-((4-methylbenzyl)carbamoyl)phenyl)acrylic acid] | – | 0.08 ± 0.004 | 16 ± 2.5 | 25 ± 3.1 | selectivity over AKR1C2 (AKR1C3): 200 fold; IC50 (AKR1C1): 81 ± 5.1 µM |
| Cc1ccc(CNC(=O)c2cc(/C=C/C(=O)O)cc(-c3ccc(Br)cc3)c2)cc1 [Compound A1-b, (E)-3-(4′-Bromo-5-((4-methylbenzyl)carbamoyl)-[1,1′-biphenyl]-3-yl)acrylic acid] | 0.09 | – | 25 ± 7 | 6.5 ± 0.6 | IC50 (AKR1C1): 107 ± 8 µM |
| Cc1ccc(CNC(=O)c2cc(/C=C/C(=O)O)cc(-c3ccc(Cl)cc3)c2)cc1 [Compound A1-c, (E)-3-(4′-Chloro-5-((4-methylbenzyl)carbamoyl)-[1,1′-biphenyl]-3-yl)acrylic acid] | – | 0.06 ± 0.007 | 20 ± 9 | 6 ± 0.5 | Selectivity 1C2:1C3 (AKR1C3; Table 2): 333; IC50 (AKR1C1): > 100 µM |
| Cc1ccc(CNC(=O)c2cc(/C=C/C(=O)O)cc(-c3ccccc3F)c2)cc1 [Compound A1-e, (E)-3-(2′-Fluoro-5-((4-methylbenzyl)carbamoyl)-[1,1′-biphenyl]-3-yl)acrylic acid] | – | 0.07 ± 0.009 | > 100 | 15.4 ± 1.7 | Selectivity 1C2:1C3 (AKR1C3; Table 2): >1430; IC50 (AKR1C1): > 100 µM |
| Cc1ccc(CNC(=O)c2cc(/C=C/C(=O)O)cc(-c3cccc(F)c3)c2)cc1 [Compound A1-f, (E)-3-(3′-Fluoro-5-((4-methylbenzyl)carbamoyl)-[1,1′-biphenyl]-3-yl)acrylic acid] | – | 0.05 ± 0.004 | 48 ± 16 | 16.4 ± 2 | selectivity over AKR1C2 (AKR1C3): 960 fold; IC50 (AKR1C1): > 100 µM |
| Cc1ccc(CNC(=O)c2cc(/C=C/C(=O)O)cc(-c3ccc(F)cc3F)c2)cc1 [Compound A1-g, (E)-3-(2′,4′-Difluoro-5-((4-methylbenzyl)carbamoyl)-[1,1′-biphenyl]-3-yl)acrylic acid] | 0.13 | – | – | – | – |
| Cc1ccc(CNC(=O)c2cc(/C=C/C(=O)O)cc(-c3ccc(C(F)(F)F)cc3)c2)cc1 [Compound A1-h, (E)-3-(5-((4-Methylbenzyl)carbamoyl)-4′-(trifluoromethyl)-[1,1′-biphenyl]-3-yl)acrylic acid] | – | 0.2 ± 0.02 | – | – | – |
| Cc1ccc(CNC(=O)c2cc(/C=C/C(=O)O)cc(-c3ccc(C)cc3)c2)cc1 [Compound A1-i, (E)-3-(4′-Methyl-5-((4-methylbenzyl)carbamoyl)-[1,1′-biphenyl]-3-yl)acrylic acid] | – | 0.1 ± 0.008 | 16 ± 3.9 | 10 ± 1.72 | Selectivity 1C2:1C3 (AKR1C3; Table 2): 160; IC50 (AKR1C1): 66 ± 17 µM |
| Cc1ccc(CNC(=O)c2cc(/C=C/C(=O)O)cc(-c3ccc(C(C)C)cc3)c2)cc1 [Compound A1-k, (E)-3-(4′-Isopropyl-5-((4-methylbenzyl)carbamoyl)-[1,1′-biphenyl]-3-yl)acrylic acid] | 0.19 | – | – | – | – |
| Cc1ccc(CNC(=O)c2cc(C#Cc3ccccc3)cc(/C=C/C(=O)O)c2)cc1 [Compound A1-w, (E)-3-(3-((4-methylbenzyl)carbamoyl)-5-(phenylethynyl)phenyl)acrylic acid] | – | 0.18 ± 0.019 | 11 ± 3.1 | – | selectivity over AKR1C2 (AKR1C3): 61 fold |
| Cc1ccc(CNC(=O)c2cc(/C=C/C(=O)O)cc(CC(C)c3ccccc3)c2)cc1 (stereo not shown) [Compound A1-x, (E)-3-(3-((4-Methylbenzyl)carbamoyl)-5-(2-phenylpropyl)phenyl)acrylic acid] | 0.88 | – | 156 ± 71 | – | selectivity over AKR1C2 (AKR1C3): 177 fold |

More lines, main results first:

| IC50 (AKR1C3; read-out: IC50 AKR1C3) [µM] | IC50 (AKR1C3; [1]) [µM] | IC50 (AKR1C2; [2]) [µM] | IC50 (AKR1C4) [µM] | Compound | further results |
| --- | --- | --- | --- | --- | --- |
| – | 0.5 ± 0.04 | 37 ± 9.6 | – | Cc1ccc(CNC(=O)c2cc(C#CC3CC3)cc(/C=C/C(=O)O)c2)cc1 [Compound A1-bb, (E)-3-(3-(Cyclopropylethynyl)-5-((4-methylbenzyl)carbamoyl)phenyl)acrylic acid] | selectivity over AKR1C2 (AKR1C3): 74 fold |
| 0.06 | – | 36 ± 4 | 8 ± 1.2 | Cc1ccc(CNC(=O)c2cc(/C=C/C(=O)O)cc(-c3ccc(F)cc3)c2)cc1 [Compound A1-d, (E)-3-(4′-Fluoro-5-((4-methylbenzyl)carbamoyl)-[1,1′-biphenyl]-3-yl)acrylic acid] | Selectivity 1C2:1C3 (AKR1C3; Table 2): 600; IC50 (AKR1C1): > 100 µM |
| – | 0.19 ± 0.01 | – | – | CCc1ccc(-c2cc(/C=C/C(=O)O)cc(C(=O)NCc3ccc(C)cc3)c2)cc1 [Compound A1-j, (E)-3-(4′-Ethyl-5-((4-methylbenzyl)carbamoyl)-[1,1′-biphenyl]-3-yl)acrylic acid] | – |
| – | 0.17 ± 0.03 | – | – | COc1ccc(-c2cc(/C=C/C(=O)O)cc(C(=O)NCc3ccc(C)cc3)c2)cc1 [Compound A1-l, (E)-3-(4′-Methoxy-5-((4-methylbenzyl)carbamoyl)-[1,1′-biphenyl]-3-yl)acrylic acid] | – |
| – | 0.17 ± 0.01 | – | – | Cc1ccc(CNC(=O)c2cc(/C=C/C(=O)O)cc(-c3ccc(C#N)cc3)c2)cc1 [Compound A1-m, (E)-3-(4′-Cyano-5-((4-methylbenzyl)carbamoyl)-[1,1′-biphenyl]-3-yl)acrylic acid] | – |
| – | 0.094 ± 0.01 | 4.8 ± 1.2 | – | Cc1ccc(CNC(=O)c2cc(/C=C/C(=O)O)cc(-c3ccc(Oc4ccccc4)cc3)c2)cc1 [Compound A1-n, (E)-3-(5-((4-Methylbenzyl)carbamoyl)-4′-phenoxy-[1,1′-biphenyl]-3-yl)acrylic acid] | selectivity over AKR1C2 (AKR1C3): 51 fold |
| – | 0.05 ± 0.004 | 29 ± 4.8 | 2.4 ± 0.15 | Cc1ccc(CNC(=O)c2cc(/C=C/C(=O)O)cc(-c3ccc(-c4ccccc4)cc3)c2)cc1 [Compound A1-u, (E)-3-(5-((4-Methylbenzyl)carbamoyl)-[1,1′:4′,1″-terphenyl]-3-yl)acrylic acid] | Selectivity 1C2:1C3 (AKR1C3; Table 2): 580 |
| 0.33 | – | 5.1 ± 0.6 | – | Cc1ccc(CNC(=O)c2cc(/C=C/C(=O)O)cc(-c3ccc(CN4CCOCC4)c(F)c3)c2)cc1 [Compound A1-y, (E)-3-(3′-Fluoro-5-((4-methylbenzyl)carbamoyl)-4′-(morpholinomethyl)-[1,1′-biphenyl]-3-yl)acrylic acid] | selectivity over AKR1C2 (AKR1C3): 16 fold |
